Test results taken from US5795977A, “Water soluble adenosine kinase inhibitors” (Metabasis Therapeutics, Inc., priority 1996, dated 1998).

What was measured:
[1] = Water solubility; type: physicochemical; conditions: suitable pH for i.v. administration (e.g. pH 4 to 10)
Description: The sample was sonicated for a period of up to 20 minutes. If a solution was not obtained, further solvent was added and the process was repeated until a clear solution was obtained, and the results were recorded. Solutions used were 50 mM potassium biphthalate (pH 4); 100 mM glycine (pH 9); 25 mM sodium carbonate and 25 mM sodium bicarbonate (pH 10); or deionized water (DI).

[2] = system: male SA rats (maximal electroshock seizures); assay: Anticonvulsant activity, maximal electroshock seizures (MES); type: in vivo; conditions: rat, po, fasted; >> = no activity at the stated dose
Description: The anticonvulsant activity of the tested compounds was evaluated in male SA rats (100-150g, Simonsen) using the maximal electroshock (MES) model described in Swinyard et al., Antiepileptic Drugs, 3d Ed. at 85-102 (Levy, et al., eds.), NY: Raven Press (1989). The rats were maintained on a 12/12 light/dark cycle in temperature controlled facilities with free access to food and water. For p.o. administration, the animals are fasted overnight, prior to the experiment. One to two hours prior to seizure testing, the animals were injected interperitoneally (ip) or orally (per os, po) with one of various doses of test compound dissolved in DMSO or PEG 400.
This endpoint was expressed as the percentage of animals in which the response was inhibited.

[3] = system: Rats (carrageenan paw); assay: Anti-inflammatory activity, carrageenan paw swelling; type: in vivo; conditions: rat, 10 mg/kg, swelling after 3 hours
Description: Carrageenan (Type λ) was suspended in sterile PBS at 1% (w/v), autoclaved for 30 minutes, and stored at room temperature. Rats were pretreated with vehicle or AK inhibitor (10 mg/kg) by oral gavage or i.p. administration and the volume of the left hind paw was measured using a water displacement plethysmometer (Stoelting Co., Wood Dale, Ill.). One hour after oral treatment or 30 minutes after i.p. treatment, the rats were briefly anesthetized, and 0.1 ml of the carrageenan solution was injected subcutaneously into the planar surface of the left hind paw. The ensuing paw swelling was measured by plethysmometry after 3 hours. The paw volume in millileters was […]. Data are presented in Table 2 as the percent inhibition of paw swelling in AK inhibitor treated animals, compared to vehicle treated control animals.

[4] = target: partially purified pig heart adenosine kinase or recombinant human adenosine kinase; assay: AK inhibition; type: biochemical; conditions: 0.5 μM [U-14C] adenosine, pH 7.0, 37° C., 20 minutes
Description: Adenosine kinase activity was measured essentially as described by Yamada et al. Biochim. Biophys. Acta 660, 36-43 (1988) with a few minor modifications. Assay mixtures contained 50 mM TRIS-maleate buffer, pH 7.0, 0.1% BSA, 1 mM ATP 1 mM MgCl2, 0.5 μM [U-^14 C] adenosine (400-600 mCi/mmol) and varying duplicate concentrations of inhibitor. […] The amount of ^14 C-AMP was quantified by scintillation counting.

[5] = system: Rats (formalin paw); assay: Formalin paw assay; type: in vivo; conditions: rat, oral 90 min prior, 10.3-30 min post-formalin, vs vehicle
Description: In this assay, injection of formalin, an irritant, into the hindpaw of rats typically evokes a biphasic response of pain-related behaviors. Phase 1 of the response which is brief, lasting approximately 0-5 min post-injection,is followed by a more prolonged phase 2, lasting approximately 10-80 min post-injection. Phase 1 behavior is thought to be a direct effect of the irritant on nociceptors at the injection site while phase 2 behavior is thought to include a hyperalgesic component mediated by sensitization of neuronal elements within the spinal cord. Studies from other laboratories have found the first portion of Phase 2 (sometimes referred to as Phase 2a) to be most responsive to pharmacological manipulation.
Rats (male, Simonsen) weighing between 100-200 g, are used in the present experiments. For screening purposes drugs are administered orally 90 min prior to initiation of formalin test. At designated intervals the animals in groups of 4 are placed individually in a small animal restrainer with the right hindpaw accessible through a hole in the bottom of the restrainer. The formalin paw assay is initiated by the injection using a 30G needle of 50 ul of a 5% formalin solution in saline into the right plantar surface of each hindpaw. […]
Scores are continuously recorded directly onto an Excel spreadsheet.

Row | water solubility [1] | IC50 [4] | SMILES | ED50 [2] | Carrageenan Paw (% inhibition) ip ([3]; ip) | Carrageenan Paw (% inhibition) po ([3]; oral gavage) | Phase 2 composite score, percent inhibition [5]
1 | less than 20 μg/ml | – | C[C@H]1O[C@@H](n2cc(-c3ccccc3)c3c(Nc4ccccc4)ncnc32)[C@H](O)[C@@H]1O [5-phenyl-4-N-phenylamino-7-(5-deoxy-1-β-D-ribofuranosyl)pyrrolo[2,3-d]pyrimidine] | – | – | – | –
2 | – | 2 nM | C[C@H]1O[C@@H](n2cc(-c3ccccc3)c3c(Nc4ccc(CCN5CCOCC5)cc4)ncnc32)[C@H](O)[C@@H]1O [Compound 3, 4-N-[4-(2-(4-morpholino)ethyl)phenyl]amino-5-phenyl-7-(5-deoxy-β-D-ribofuranosyl)pyrrolo[2,3-d]pyrimidine] | > 10 mg/kg | 19.5% | 9.8% | 31%
